Measured values from patent US9095134B2, “Antimicrobial compositions containing cationic active ingredients and quaternary sugar derived surfactants” (priority 2010, dated 2015).

Columns and labels:
S. aureus = test: Time kill method (ASTM E 2315), log reduction of S. aureus; format: cell-based, S. aureus (ATCC 6538); settings: 0.5% ADBAC Quat
Experimental: (§1) • (a) Determination of Time Kill Activity: The activity of antimicrobial compositions was measured by the time kill method [ASTM E 2315 Standard Guide for Assessment of Antimicrobial Activity Using a Time Kill Procedure], whereby the survival of challenged organisms exposed to an antimicrobial test composition is […] as a function of time. In this test, a diluted aliquot of the composition is brought into contact with a known population of test bacteria for a specified time period at a specified temperature. The test composition is neutralized at the end of the time period, which arrests the antimicrobial activity of the composition. The percent or, alternatively, log reduction from the original bacteria population is calculated. In general, the time kill method is known to those skilled in the art. In addition, comparative data on the foam profile of representative systems is shown. • (b) The composition can be tested at any concentration from 0-100%. The choice of which concentration to use is at the discretion of the investigator, and suitable concentrations are readily determined by those skilled in the art. All testing if performed in triplicate, the results are combined, and the average log reduction is reported. • (c) The choice of contact time period also is at the discretion of the investigator. Any contact time period can be chosen. Typical contact times range from 15 second to 5 minutes, with 30 seconds and 1 minute being typical contact times. The contact temperature also can be any temperature, typically room temperature, or about 25 degrees Celsius. • (d) The microbial suspension, or test inoculum, is prepared by growing a microbial culture on any appropriate solid media (e.g., agar). The microbial population then is washed from the agar with sterile physiological saline and the population of the microbial suspension is adjusted to about 10^8 colony forming units per ml (cfu/ml). • (e) The table below lists the test microbial cultures used in the following tests and includes the name of the bacteria, the ATCC (American Type Culture Collection) identification number, and the abbreviation for the name of the organism used hereafter.
(§2) S. aureus is a Gram positive bacteria, whereas, E. coli is a Gram negative bacteria.
(§3) The log reduction is calculated using the formula: Log reduction=log10(numbers control)−log10(test sample survivors). Foam Height Determination

E. coli = test: Time kill method (ASTM E 2315), log reduction of E. coli; format: cell-based, Escherichia coli (ATCC 112229); settings: 0.5% ADBAC Quat
Experimental: as §1, §2, §3

[1] = quaternized sugar-derived surfactant 1.25% w/w, 1.95% alkyl dimethyl amine oxide, 30 second exposure
[2] = 1.95% w/w foam boosting agent, 1.25% Poly Trimoniumhydroxypropyl Cocoglucosides Chloride, 30 seconds exposure
[3] = 3.0% w/w foam boosting agent, 1.25% Poly Trimoniumhydroxypropyl Cocoglucosides Chloride, 30 seconds exposure
[4] = 4.2% w/w foam boosting agent, 1.25% Poly Trimoniumhydroxypropyl Cocoglucosides Chloride, 30 seconds exposure

Substance | S. aureus Log Reduction (S. aureus; [1]) [log] | E. coli Log Reduction (E. coli; [1]) [log] | also measured
Lauridimonium-hydroxypropyl Cocoglucosides Chloride [L8610] | >5.0 | >5.0 | 
Alkyl Dimethyl Amine Oxide |  |  | S. aureus Log Reduction (S. aureus; [2]): >5.5 log; S. aureus Log Reduction (S. aureus; [3]): >5.5 log; S. aureus Log Reduction (S. aureus; [4]): >5.5 log; E. coli Log Reduction (E. coli; [2]): >5.5 log; E. coli Log Reduction (E. coli; [3]): >5.5 log; E. coli Log Reduction (E. coli; [4]): >5.5 log
Cocoglucosides Hydroxypropyl-trimonium Chloride [TM8610] | >5.0 | >5.0 | 
Stearyldimonium-hydroxypropyl Laurylglucosides Chloride [S1218] | >5.0 | >5.0 | 
Lauridimonium-hydroxypropyl Laurylglucosides Chloride [L1210] | >5.0 | >5.0 | 
Laurylglucosides Hydroxypropyl-trimonium Chloride [TM1212] | >5.0 | >5.0 | 
